Measurements as given in US20190045783A1, “SUBSTITUTED IMIDAZOLYLCARBOXAMIDES AS PESTICIDES” (BAYER CROPSCIENCE AKTIENGESELLSCHAFT, priority 2016, published 2019).
Where two headings read alike, the source gives them in different places.

Experiments:
[1] = log P by HPLC on reversed-phase column (C18), EEC directive 79/831 Annex V.A8; format: physicochemical; settings: for chromatographic logP: reversed-phase HPLC column (C18)
[2] = tested on: green peach aphid (Myzus persicae); assay: Myzus persicae spray test (Chinese cabbage leaf discs); format: in vivo; settings: for pest or weed control at 500 g/ha: Myzus persicae, foliar, read-out: efficacy in %
Procedure: Myzus persicae—Spray Test
To produce a suitable active ingredient formulation, 1 part by weight of active ingredient is dissolved with the stated parts by weight of solvent and made up with water containing an emulsifier concentration of 1000 ppm until the desired concentration is attained. To produce further test concentrations, the formulation is diluted with emulsifier-containing water.
After 5-6 days, the efficacy in % is determined. 100% means that all the aphids have been killed; 0% means that no aphids have been killed.

[3] = tested on: green peach aphids (Myzus persicae); assay: Myzus persicae oral test; format: in vivo; settings: for pest or weed control at 20 ppm: Myzus persicae, 120 h, read-out: efficacy in %
Procedure: (§1) Solvent: 100 parts by weight of acetone
Subsequently, the plates are sealed with parafilm, which a mixed population of green peach aphids (Myzus persicae) within a second microtitre plate is able to puncture and imbibe the solution through it.
After 5 days, the efficacy in % is determined. 100% means that all the aphids have been killed; 0% means that no aphids have been killed.

[4] = tested on: green peach aphid (Myzus persicae); assay: Myzus persicae spray test (MYZUPE), comparison with prior art; format: in vivo; settings: for Emax at 100 g/ha: Myzus persicae, read-out: % efficacy
Procedure: Myzus persicae—Spray Test (MYZUPE)
Emulsifier: alkylaryl polyglycol ether
(§2) After the desired period of time (dat), the efficacy in % is determined. 100% means that all the aphids have been killed; 0% means that no aphids have been killed.

[5] = tested on: green peach aphids (Myzus persicae); assay: Myzus persicae oral test (MYZUPE O), comparison with prior art; format: in vivo; settings: for Emax at 4 ppm / Emax at 0.8 ppm: Myzus persicae, po, read-out: % efficacy
Procedure: Myzus persicae—Oral Test (MYZUPE O)
as §1
50 μl of the active compound preparation are transferred into microtitre plates and made up to a final volume of 200 μl with 150 μl of IPL41 insect medium (33%+15% sugar). Subsequently, the plates are sealed with parafilm, which a mixed population of green peach aphids (Myzus persicae) within a second microtitre plate is able to puncture and imbibe the solution through it.
as §2

[6] = application rate 500 g/ha, after 5-6 days, Chinese cabbage leaf discs, 100% = all aphids killed
[7] = application rate 20 ppm, after 5 days, oral, 100% = all aphids killed
[8] = neutral range, pH 7.8, HPLC C18, 43° C., Table 1, read-out: logP [n]
[9] = 120 h, MYZUPE, 100 g of ai/ha, 5 dat
[10] = neutral range, pH 7.8, HPLC C18, 43° C., preparation examples, read-out: log P[n]
[11] = neutral range, pH 7.8, HPLC C18, 43° C., Table 1

Compound | logP [n] ([1]; pH 7.8) | efficacy in % [2, 6] | efficacy in % [3, 7] | further results
2-(Ethylcarbamothioyl)-N,1-dimethyl-N-(pyridin-3-yl)-1H-imidazole-5-carboxamide [I-1-056] | 1.42 | 100% | 100% | % efficacy ([4]; MYZUPE, 100 g of ai/ha, 5 dat): 100%; % efficacy ([5]; MYZUPE O, 0.8 ppm, 5 dat): 100%; % efficacy ([5]; MYZUPE O, 4 ppm, 5 dat): 100%
CN(C(=O)c1cnc(/C=N/OCc2cccnc2)n1C)c1cccnc1 [I-1-024] |  |  |  | chromatographic logP [1, 8]: 1.24; pest or weed control at 20 ppm [3, 7]: 100%; Emax at 4 ppm ([5]; 144 h, MYZUPE O, 4 ppm, 6 dat): 90%
CCOC(=O)c1ncc(C(=O)N(C)c2cccnc2)n1C [I-1-025] |  |  |  | chromatographic logP [1, 8]: 1.1; pest or weed control at 500 g/ha [2]: 90%; pest or weed control at 20 ppm ([3]; po): 100%; Emax at 100 g/ha [4]: 90%; Emax at 0.8 ppm ([5]; 120 h): 90%; Emax at 4 ppm ([5]; 120 h): 100%
CCN(C(=O)c1cnc(/C=N/OCC2CC2)n1C)c1cccnc1 [I-1-042] | 1.86 | 100% | 100% | 
CCCO/N=C/c1ncc(C(=O)N(CC)c2cccnc2)n1C [I-1-043] | 1.85 | 90% | 100% | 
CCN(C(=O)c1cnc(C=NOC)n1C)c1cccnc1 [I-1-044] |  |  |  | chromatographic logP [1, 8]: 1.29; pest or weed control at 500 g/ha [2, 6]: 100%; Emax at 100 g/ha [4, 9]: 90%; Emax at 4 ppm ([5]; 120 h, MYZUPE O, 4 ppm, 5 dat): 100%
CCNC(=O)c1ncc(C(=O)N(C)c2cccnc2)n1C [I-1-046, N^2-Ethyl-N^5,1-dimethyl-N^5-(pyridin-3-yl)-1H-imidazole-2,5-dicarboxamide] |  |  |  | chromatographic logP ([1]; acidic range, pH 2.7, HPLC C18, 43° C., preparation examples, read-out: log P[a]): 0.8; chromatographic logP [1, 10]: 0.97; pest or weed control at 500 g/ha [2, 6]: 100%; pest or weed control at 20 ppm [3, 7]: 100%
CN(C(=O)c1cnc(C(=O)NCC(F)(F)F)n1C)c1cccnc1 [I-1-048] | 1.42 | 100% | 100% | 
COCCOC(=O)N/N=C/c1ncc(C(=O)N(C)c2cccnc2)n1C [I-1-049] | 1.26 | 90% | 100% | 
CCO/N=C/c1ncc(C(=O)N(CC)c2cccnc2)n1C [I-1-051] | 1.66 | 100% | 100% | 
CN(C(=O)c1cnc(/C=N/OC2CCCC2)n1C)c1cccnc1 [I-1-052] | 2.14 | 100% | 100% | 
CCN(C)C(=O)c1ncc(C(=O)N(C)c2cccnc2)n1C [I-1-053] | 0.87 | 90% | 100% | 
CN(C(=O)c1cnc(C(=O)N2CCCC2)n1C)c1cccnc1 [I-1-054, N,1-Dimethyl-N-(pyridin-3-yl)-2-(pyrrolidin-1-ylcarbonyl)-1H-imidazole-5-carboxamide] |  |  |  | chromatographic logP [1, 8]: 1.02; pest or weed control at 500 g/ha [2, 6]: 100%; pest or weed control at 20 ppm [3, 7]: 100%
CCNC(=S)c1ncc(C(=O)N(C)c2cccnc2)n1C [I-1-057] | 1.64 | 90% | 100% | log P[a] ([1]; pH 2.7): 1.21; log P[n] ([1]; pH 7.8): 1.42
CCN(CC)C(=O)c1ncc(C(=O)N(C)c2cccnc2)n1C [I-1-058] |  | 100% | 100% | logP [n] [1, 11]: 1.11
CN(C(=O)c1cnc(C(=O)NC2CC2)n1C)c1cccnc1 [I-1-062] | 1.06 | 100% | 100% | 
COCCNC(=O)c1ncc(C(=O)N(C)c2cccnc2)n1C [I-1-064] | 0.94 | 90% | 100% | 

Compound | logP [n] ([1]; pH 7.8) | efficacy in % [2, 6] | efficacy in % [3, 7] | further results
CC(C)CNC(=O)c1ncc(C(=O)N(C)c2cccnc2)n1C [I-1-065] | 1.57 | 100% | 100% | 
CCNC(=O)c1ncc(C(=O)N(CC)c2cccnc2)n1C [I-1-066] | 1.24 | 100% | 100% | 
CN(C(=O)c1cnc(C(=O)C(C)(C)C#N)n1C)c1cccnc1 [I-1-067] | 1.55 | 100% | 100% | 
CCN(C)C(=O)c1ncc(C(=O)N(CC)c2cccnc2)n1C [I-1-068] | 1.12 | 100% | 90% | 
CON(C)C(=O)c1ncc(C(=O)N(C)c2cccnc2)n1C [I-1-069, N^2-Methoxy-N^2,N^5,1-trimethyl-N^5-(pyridin-3-yl)-1H-imidazole-2,5-dicarboxamide] |  |  |  | chromatographic logP [1, 10]: 0.72; pest or weed control at 500 g/ha [2, 6]: 100%; pest or weed control at 20 ppm [3, 7]: 100%
CN(C(=O)c1cnc(C(=O)NS(C)(=O)=O)n1C)c1cccnc1 [I-1-070] |  |  |  | chromatographic logP [1, 8]: -0.2; pest or weed control at 20 ppm [3, 7]: 90%; Emax at 0.8 ppm ([5]; 120 h, MYZUPE O, 0.8 ppm, 5 dat): 100%
CN(C(=O)c1cnc(C(=O)N2CCC2)n1C)c1cccnc1 [I-1-071] | 0.89 | 90% | 100% | 
CCN(C(=O)c1cnc(C(=O)N(C)C)n1C)c1cccnc1 [I-1-072] |  | 100% | 100% | logP [n] [1, 11]: 0.88
CN(C(=O)c1cnc(C(=O)NC2(C#N)CC2)n1C)c1cccnc1 [I-1-073] | 1.03 | 100% | 100% | 
CCOC(=O)CNC(=O)c1ncc(C(=O)N(C)c2cccnc2)n1C [I-1-075] | 1.22 | 90% | 100% | 
CN(C(=O)c1cnc(C(=O)NC(CO)c2ccccc2)n1C)c1cccnc1 (centres unmarked) [I-1-079] | 1.39 | 90% | 90% | 
Cc1ccc(N(C)C(=O)c2cnc(C(=O)N(C)C)n2C)cn1 [I-1-080] |  | 90% | 100% | logP [n] [1, 11]: 0.81
CN(C(=O)c1cnc(C(=O)N(C)S(C)(=O)=O)n1C)c1cccnc1 [I-1-081] | 1.11 | 90% | 100% | 
CN(C)C(=O)c1ncc(C(=O)N(c2cccnc2)C2CC2)n1C [I-1-083] |  |  |  | chromatographic logP [1, 8]: 1.02; pest or weed control at 500 g/ha [2, 6]: 90%; pest or weed control at 20 ppm [3, 7]: 90%; Emax at 100 g/ha [4, 9]: 90%
CN(C(=O)c1cnc(C(=O)C2CC2)n1C)c1cccnc1 [I-1-084] | 1.32 | 90% | 100% | 
CC(=O)c1ncc(C(=O)N(C)c2cccnc2)n1C [I-1-085] |  | 90% | 100% | logP [n] [1, 11]: 0.87
